Experimental data taken from article PMC9355146, “Novel angiotensin-converting enzyme inhibitory peptides from tuna byproducts—milts: Preparation, characterization, molecular docking study, and antioxidant function on H2O2-damaged human umbilical vein endothelial cells” (Frontiers in Nutrition, 2022).
Like-named read-outs stand apart in the source and are kept apart here. Where a SMILES comes first, the peptide text is derived from it.

Experiments:
H2O2-damaged HUVECs [1] = test: MDA level in H2O2-damaged HUVECs; type: cell-based, human; conditions: then H2O2 400 μM for 24 h, mean ± SD, n = 3
Experimental: (§1) The cytoprotective assay was carried out using the described methods ([55], [56]). In short, HUVECs were cultured in a 96-well plate at a density of 1 × 10^4 cells/cm^2 for 24 h. Afterward, the supernatant was aspirated, and 20 μL of ACEi peptides (TP6, TP7, and TP10) with the final concentrations of 100 and 200 μM were added to the protection groups, respectively. […] GSH was used as the positive control.
(§2) The level of ROS was determined on the method described by Cai et al. ([55]) and expressed as % of blank control; the levels of MDA, SOD, and GSH-Px were measured using assay kits in accordance with the manufacturer' protocols and expressed as U/mg prot.

HUVECs [2] = test: Endothelin-1 (ET-1) secretion in HUVECs; type: cell-based, human; conditions: 24 h, mean ± SD, n = 3
Experimental: (§3) HUVECs were cultured in 96-well plates at a density of 1 × 10^4 cells/cm^2 and treated with Cap (1 μM), NE (0.5 μM), or ACEi peptides (100–200 μM) for 24 h, or incubated with both NE (0.5 μM) and 200 μM ACEi peptides for 24 h. NO and ET-1 contents of HUVECs were determined after 24 h according to the NO and ET-1 assay kits as manufactures' protocol ([54]).

HUVECs [3] = test: Nitric oxide (NO) production in HUVECs; type: cell-based, human; conditions: 24 h, mean ± SD, n = 3
Experimental: as §3

H2O2-damaged HUVECs [4] = test: SOD level in H2O2-damaged HUVECs; type: cell-based, human; conditions: then H2O2 400 μM for 24 h, mean ± SD, n = 3
Experimental: as §1, §2

H2O2-damaged HUVECs [5] = type: cell-based, human
Experimental: The cytotoxic assay was carried out as per the previous method ([54]). […] Then, 20 μL MTT solution (5 mg/mL) was put in and incubated for 4 h. In the end, DMSO was joined in each well plate, and the absorbance (A) at 490 nm was determined. Cell viability(%)= (Asample/Acontrol) × 100. The cytoprotective assay was carried out using the described methods ([55], [56]). In short, HUVECs were cultured in a 96-well plate at a density of 1 × 10^4 cells/cm^2 for 24 h. […] GSH was used as the positive control.

H2O2-damaged HUVECs [6] = test: GSH-Px level in H2O2-damaged HUVECs; type: cell-based, human; conditions: then H2O2 400 μM for 24 h, mean ± SD, n = 3
Experimental: as §1, §2

HUVECs [7] = test: Cytotoxic assay (MTT) on HUVECs; type: cell-based, human; conditions: 50–200 μM, 24 h
Experimental: The cytotoxic assay was carried out as per the previous method ([54]). HUVECs were cultured at a density of 1 × 10^4 cells/cm^2 to confluence in DMEM at 37°C in a humidified 5% CO2 atmosphere ([8]). The cytotoxicity of TP1–TP10 on HUVECs was measured using MTT assay ([8]). In short, HUVECs in 96-well plates at a density of 1 × 10^4 cells/cm^2 were separately treated with 20 μL samples at 50 and 200 μM, respectively, and cultured for 24 h. Then, 20 μL MTT solution (5 mg/mL) was put in and incubated for 4 h. In the end, DMSO was joined in each well plate, and the absorbance (A) at 490 nm was determined.
Cell viability(%)= (Asample/Acontrol) × 100.

ACE = ACE (Oryctolagus cuniculus, UniProt G1TYT4); conditions: cited from earlier work
[8] = target: T1, Angiotensin-converting enzyme (ACE) (UniProt P12822)
T1 sequence: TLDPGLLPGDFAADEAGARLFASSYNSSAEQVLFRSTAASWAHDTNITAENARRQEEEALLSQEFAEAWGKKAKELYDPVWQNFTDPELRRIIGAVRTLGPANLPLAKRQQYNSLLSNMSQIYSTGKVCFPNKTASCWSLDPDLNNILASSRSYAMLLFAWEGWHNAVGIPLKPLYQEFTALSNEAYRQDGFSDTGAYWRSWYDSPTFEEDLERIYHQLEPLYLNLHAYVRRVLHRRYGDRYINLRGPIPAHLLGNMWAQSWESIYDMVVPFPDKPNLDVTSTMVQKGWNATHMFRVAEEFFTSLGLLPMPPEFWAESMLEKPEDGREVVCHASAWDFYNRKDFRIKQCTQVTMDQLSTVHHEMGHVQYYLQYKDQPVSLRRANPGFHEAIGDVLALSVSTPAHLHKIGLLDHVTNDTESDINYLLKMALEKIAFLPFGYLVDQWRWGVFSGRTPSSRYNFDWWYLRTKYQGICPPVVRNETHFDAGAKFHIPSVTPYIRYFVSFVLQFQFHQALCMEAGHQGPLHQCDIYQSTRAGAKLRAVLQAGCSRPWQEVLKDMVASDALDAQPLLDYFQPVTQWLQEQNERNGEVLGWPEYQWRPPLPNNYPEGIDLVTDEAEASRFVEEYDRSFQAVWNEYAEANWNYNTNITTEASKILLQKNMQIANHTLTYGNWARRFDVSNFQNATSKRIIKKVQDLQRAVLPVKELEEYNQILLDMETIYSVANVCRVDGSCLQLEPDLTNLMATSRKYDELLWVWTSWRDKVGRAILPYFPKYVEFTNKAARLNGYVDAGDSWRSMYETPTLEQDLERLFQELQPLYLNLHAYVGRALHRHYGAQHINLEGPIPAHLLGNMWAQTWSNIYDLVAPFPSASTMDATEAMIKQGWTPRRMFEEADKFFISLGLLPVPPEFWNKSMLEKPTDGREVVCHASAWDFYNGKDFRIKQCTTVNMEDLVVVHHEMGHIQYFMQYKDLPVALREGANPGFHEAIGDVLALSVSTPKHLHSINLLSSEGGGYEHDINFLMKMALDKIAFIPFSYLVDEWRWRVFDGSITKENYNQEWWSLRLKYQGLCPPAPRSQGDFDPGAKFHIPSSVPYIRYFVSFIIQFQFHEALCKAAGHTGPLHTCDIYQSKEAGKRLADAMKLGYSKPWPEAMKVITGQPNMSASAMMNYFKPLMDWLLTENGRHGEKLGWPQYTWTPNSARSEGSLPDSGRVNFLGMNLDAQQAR

[9] = NE 0.5 μM together with peptide 200 μM

ACE, sequence (G1TYT4 1-1284): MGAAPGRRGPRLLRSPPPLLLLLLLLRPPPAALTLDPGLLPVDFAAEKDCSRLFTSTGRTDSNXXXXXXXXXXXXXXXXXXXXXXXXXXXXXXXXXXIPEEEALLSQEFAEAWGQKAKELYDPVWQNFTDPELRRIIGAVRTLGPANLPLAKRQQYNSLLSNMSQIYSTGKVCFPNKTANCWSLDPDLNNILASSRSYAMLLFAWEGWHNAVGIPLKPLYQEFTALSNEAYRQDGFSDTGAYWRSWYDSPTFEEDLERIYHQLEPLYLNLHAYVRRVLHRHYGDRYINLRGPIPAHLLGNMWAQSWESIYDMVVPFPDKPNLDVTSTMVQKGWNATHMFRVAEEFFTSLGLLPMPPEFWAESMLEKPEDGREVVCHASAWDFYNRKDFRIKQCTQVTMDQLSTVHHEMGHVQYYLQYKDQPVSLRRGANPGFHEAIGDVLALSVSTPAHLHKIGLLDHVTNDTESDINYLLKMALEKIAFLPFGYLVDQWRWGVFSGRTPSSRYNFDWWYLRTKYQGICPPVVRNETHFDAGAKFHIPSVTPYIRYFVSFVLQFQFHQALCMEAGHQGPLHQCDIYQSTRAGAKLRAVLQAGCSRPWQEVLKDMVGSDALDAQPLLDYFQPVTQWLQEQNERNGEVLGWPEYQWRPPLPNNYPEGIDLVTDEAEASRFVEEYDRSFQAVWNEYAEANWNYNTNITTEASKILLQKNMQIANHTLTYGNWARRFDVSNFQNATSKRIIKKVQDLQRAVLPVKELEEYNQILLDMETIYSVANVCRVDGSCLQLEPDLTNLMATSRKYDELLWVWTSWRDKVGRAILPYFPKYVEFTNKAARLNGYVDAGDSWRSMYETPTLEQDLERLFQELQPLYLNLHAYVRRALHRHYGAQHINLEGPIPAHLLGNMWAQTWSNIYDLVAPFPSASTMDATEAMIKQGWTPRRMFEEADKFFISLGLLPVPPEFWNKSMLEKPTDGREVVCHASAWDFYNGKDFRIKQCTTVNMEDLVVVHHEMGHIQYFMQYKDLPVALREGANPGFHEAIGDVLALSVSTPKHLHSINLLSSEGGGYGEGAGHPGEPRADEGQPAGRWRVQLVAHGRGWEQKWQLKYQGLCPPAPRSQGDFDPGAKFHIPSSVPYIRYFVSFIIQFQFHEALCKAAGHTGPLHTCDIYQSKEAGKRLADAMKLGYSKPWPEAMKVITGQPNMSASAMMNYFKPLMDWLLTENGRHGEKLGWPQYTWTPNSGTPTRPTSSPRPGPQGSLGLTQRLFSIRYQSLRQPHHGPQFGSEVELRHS

`CC[C@H](C)[C@H](N)C(=O)N[C@@H](CS)C(=O)N[C@@H](Cc1ccc(O)cc1)C(=O)O` [TP6, Ile-Cys-Tyr] (H-Ile-Cys-Tyr-OH) showed an MDA level (H2O2-damaged HUVECs [1]; peptide 200 μM for 8 h) of 17.08 ± 0.96 nmol/mg prot, an ET-1 level (HUVECs [2]; [9]) of 105.18 ± 3.29 pg/mL and an ET-1 level (HUVECs [2]; peptide 200 μM) of 92.57 ± 2.68 pg/mL. For the same molecule, the NO level (HUVECs [3]; [9]) was 42.21 ± 2.66 μmol/gprot, the NO level (HUVECs [3]; peptide 200 μM) was 50.63 ± 1.95 μmol/gprot and the SOD level (H2O2-damaged HUVECs [4]; peptide 100 μM for 8 h) was 168.77 ± 5.32 U/mg prot. For the same molecule, the SOD level (H2O2-damaged HUVECs [4]; peptide 200 μM for 8 h) was 184.06 ± 7.19 U/mg prot, the “cell viability of H2O2-damaged HUVECs” value (H2O2-damaged HUVECs [5]; 8 h, 200 μM) was 69.76 ± 3.06% and the GSH-Px level (H2O2-damaged HUVECs [6]; peptide 100 μM for 8 h) was 42.69 ± 1.32 U/mg prot. It also gave a GSH-Px level (H2O2-damaged HUVECs [6]; peptide 200 μM for 8 h) of 51.28 ± 3.16 U/mg prot.

For `OO` [H2O2], the “cell viability of HUVECs (% of the blank group)” value (H2O2-damaged HUVECs [5]; H2O2 400 μM alone, 24 h (oxidative damage model), mean ± SD, n = 3) was 50.48 ± 1.96%.

With `CC[C@H](C)[C@H](N)C(=O)N[C@@H](Cc1ccc(O)cc1)C(=O)N[C@@H](CO)C(=O)N1CCC[C@H]1C(=O)O` [TP10, Ile-Tyr-Ser-Pro] (H-IYSP-OH) the MDA level (H2O2-damaged HUVECs [1]; peptide 200 μM for 8 h) was 19.11 ± 0.88 nmol/mg prot, the ET-1 level (HUVECs [2]; [9]) was 109.12 ± 2.95 pg/mL and the ET-1 level (HUVECs [2]; peptide 200 μM) was 96.15 ± 1.35 pg/mL. The “toxicity to HUVECs (in words)” value (HUVECs [7]) was “no significant toxicity”, the NO level (HUVECs [3]; [9]) was 39.27 ± 1.96 μmol/gprot and the NO level (HUVECs [3]; peptide 200 μM) was 46.78 ± 2.47 μmol/gprot. For the same molecule, the SOD level (H2O2-damaged HUVECs [4]; peptide 100 μM for 8 h) was 154.35 ± 3.68 U/mg prot, the SOD level (H2O2-damaged HUVECs [4]; peptide 200 μM for 8 h) was 172.93 ± 6.58 U/mg prot and the “cell viability of H2O2-damaged HUVECs” value (H2O2-damaged HUVECs [5]; 8 h, 200 μM) was 61.58 ± 3.04%. For the same molecule, the GSH-Px level (H2O2-damaged HUVECs [6]; peptide 100 μM for 8 h) was 38.91 ± 1.17 U/mg prot and the GSH-Px level (H2O2-damaged HUVECs [6]; peptide 200 μM for 8 h) was 44.69 ± 2.09 U/mg prot.

For MLVFAV, the “IC50 on ACE” value (ACE; ACEi peptide from Katsuwonus pelamis) is listed as 2360 µg/mL.

In the case of FRKE, the “IC50 on ACE” value (ACE; ACEi peptides from Antarctic krill) is listed as 6970 µg/mL.

In the case of LGPLGHQ, the “IC50 on ACE” value (ACE; ACEi peptide from skate) is listed as 4220 µg/mL.

TP6, Ile-Cys-Tyr (ICY) (peptide) showed an ACEi activity (IC50): inhibition of ACE hydrolysis of FAPGG, absorbance at 340 nm, 37°C, pH 8.3 [8] of 0.48 mg/mL.

For EHPVL, the “IC50 on ACE” value (ACE; ACEi peptide from stone fish) is given as 1680 µg/mL.

For `CC(C)C[C@H](N)C(=O)N[C@@H](CO)C(=O)N[C@@H](Cc1ccccc1)C(=O)N[C@@H](CCCNC(=N)N)C(=O)O` [TP7, Leu-Ser-Phe-Arg] (H-LSFR-OH), the MDA level (H2O2-damaged HUVECs [1]; peptide 200 μM for 8 h) was 20.68 ± 1.06 nmol/mg prot, the ET-1 level (HUVECs [2]; [9]) was 110.36 ± 1.76 pg/mL and the ET-1 level (HUVECs [2]; peptide 200 μM) was 101.49 ± 2.05 pg/mL. For the same molecule, the “toxicity to HUVECs (in words)” value (HUVECs [7]) was “no significant toxicity”, the NO level (HUVECs [3]; [9]) was 35.18 ± 1.2 μmol/gprot and the NO level (HUVECs [3]; peptide 200 μM) was 45.91 ± 1.68 μmol/gprot. For the same molecule, the SOD level (H2O2-damaged HUVECs [4]; peptide 100 μM for 8 h) was 141.79 ± 3.96 U/mg prot, the SOD level (H2O2-damaged HUVECs [4]; peptide 200 μM for 8 h) was 158.79 ± 5.93 U/mg prot and the “cell viability of H2O2-damaged HUVECs” value (H2O2-damaged HUVECs [5]; 8 h, 200 μM) was 59.15 ± 2.81%. For the same molecule, the GSH-Px level (H2O2-damaged HUVECs [6]; peptide 100 μM for 8 h) was 35.61 ± 1.23 U/mg prot and the GSH-Px level (H2O2-damaged HUVECs [6]; peptide 200 μM for 8 h) was 40.93 ± 2.15 U/mg prot.

Molecule `NC[C@H](O)c1ccc(O)c(O)c1` [NE, Norepinephrine, reference compound] has an ET-1 secretion (HUVECs [2]; NE 0.5 μM alone) of 148.35 ± 3.87 pg/mL and an NO level (HUVECs [3]; NE 0.5 μM alone) of 22.91 ± 1.26 μmol/gprot.

With `N[C@@H](CCC(=O)N[C@@H](CS)C(=O)NCC(=O)O)C(=O)O` [GSH, glutathione, reference compound] the MDA level (H2O2-damaged HUVECs [1]; GSH positive control (concentration not given)) was 15.28 ± 0.61 nmol/mg prot and the “cell viability of H2O2-damaged HUVECs” value (H2O2-damaged HUVECs [5]; GSH positive control (concentration not given), then H2O2 400 μM for 24 h, mean ± SD, n = 3) was 75.69 ± 3.52%.

With IYSP [TP10, Ile-Tyr-Ser-Pro (IYSP)] the ACEi activity (IC50): inhibition of ACE hydrolysis of FAPGG, absorbance at 340 nm, 37°C, pH 8.3 [8] was 0.76 mg/mL.

Work on LSFR [TP7, Leu-Ser-Phe-Arg (LSFR)] yielded an ACEi activity (IC50): inhibition of ACE hydrolysis of FAPGG, absorbance at 340 nm, 37°C, pH 8.3 [8] of 0.59 mg/mL.
